Earlier results on 1 molecule are cited in US20070286875A1 (Morton Grove Pharmaceuticals, Inc., priority 2006, published 2007).

The conditions of data set [1]: 10 mg once daily with erythromycin, cimetidine, ketoconazole.

For the molecule `CCOC(=O)N1CCC(=C2c3ccc(Cl)cc3CCc3cccnc32)CC1` [loratadine, ethyl 4-(8-chloro-5,6-dihydro-11H-benzo[5,6]cyclohepta[1,2-b]pyridin-11-ylidene)-1-piperidinecarboxylate], in the data set on H1-receptors, the “binding to peripheral versus central nervous system H1-receptors” value is reported as “preferential binding to peripheral”. The “changes in safety profile on co-administration” value in data set [1] is “no clinically relevant changes”.
